Data from US7977342B2, “HCV inhibiting bi-cyclic pyrimidines” (Tibotec-Virco Virology BVBA, priority 2007, dated 2011).

What follows are compounds tested on HCV replicons (HCV RNA replication) in Huh-7 luc/neo cells (assay: Stable replicon cell reporter assay (Huh-Luc, luciferase)). Conditions: Hepatitis C virus, 72 h; Huh-Luc (Huh-7 luc/neo) cells, HCV type 1b NS3-NS5B replicon, luciferase readout, three days incubation.
Type: cell-based
Description: The compounds of the present invention were examined for activity in the inhibition of HCV RNA replication in a cellular assay. […] The cellular assay was based on a bicistronic expression construct, as described by Lohmann et al. (1999) Science vol. 285 pp. 110-113 with modifications described by Krieger et al. (2001) Journal of Virology 75: 4614-4624, in a multi-target screening strategy. In essence, the method was as follows.
The assay utilized the stably transfected cell line Huh-7 luc/neo (hereafter referred to as Huh-Luc). This cell line harbored an RNA encoding a bicistronic expression construct comprising the wild type NS3-NS5B regions of HCV type 1b translated from an Internal Ribosome Entry Site (IRES) from encephalomyocarditis virus (EMCV), preceded by a reporter portion (FfL-luciferase), and a selectable marker portion (neo^R, neomycine phosphotransferase). The construct was bordered by 5′ and 3′ NTRs (non-translated regions) from HCV type 1b. Continued culture of the replicon cells in the presence of G418 (neo^R) was dependent on the replication of the HCV RNA. The stably transfected replicon cells that expressed HCV RNA, which replicated autonomously and to high levels, encoding inter alia luciferase, were used for screening the antiviral compounds.
The replicon cells were plated in 384 well plates in the presence of the test and control compounds which were added in various concentrations. Following an incubation of three days, HCV replication was measured by assaying luciferase activity (using standard luciferase assay substrates and reagents and a Perkin Elmer ViewLux™ ultraHTS microplate imager). Replicon cells in the control cultures had high luciferase expression in the absence of any inhibitor. The inhibitory activity of the compound on luciferase activity was monitored on the Huh-Luc cells, enabling a dose-response curve for each test compound. EC50 values were then calculated, which value represented the amount of the compound required to decrease by 50% the level of detected luciferase activity, or more specifically, the ability of the genetically linked HCV replicon RNA to replicate.

| SMILES | EC50 |
| --- | --- |
| Cc1noc2nc(-c3cc(Cl)ccc3F)nc(Nc3ccncc3)c12 [Compound 8] | 0.4 µM |
| Cc1cnccc1Nc1nc(-c2cc(Cl)ccc2F)nc2c1CCC2 [Compound 20] | 0.7 µM |
| NC(=O)c1cnccc1Nc1nc(-c2cc(Cl)ccc2F)nc2c1CCC2 [Compound 21] | 0.4 µM |
| CNC(=O)c1cnccc1Nc1nc(-c2cc(Cl)ccc2F)nc2c1CCC2 [Compound 35] | 1.5 µM |
| CNC(=O)c1cnccc1Nc1nc(-c2cc(Cl)ccc2F)nc2c1CCCC2 [Compound 40] | 7.3 µM |
| CC1CCc2nc(-c3cc(Cl)ccc3F)nc(Nc3ccncc3C(N)=O)c21 (centres unmarked) [Compound 46] | 1.6 µM |
| CNC(=O)c1cnccc1Nc1nc(-c2cc(Cl)ccc2F)nc2c1C(C)CC2 (centres unmarked) [Compound 47, 4-[2-(5-Chloro-2-fluorophenyl)-5-methyl-6,7-dihydro-5H-cyclopentapyrimidin-4-ylamino]-N-methyl-nicotinamide] | 27.7 µM |
| CC1CCc2nc(-c3cc(Cl)ccc3F)nc(Nc3ccncc3C(=O)O)c21 (centres unmarked) [Compound 49, 4-[2-(5-Chloro-2-fluorophenyl)-5-methyl-6,7-dihydro-5H-cyclopentapyrimidin-4-ylamino]-nicotinic acid] | 13.1 µM |
| C[C@H](O)CNC(=O)c1cnccc1Nc1nc(-c2cc(Cl)ccc2F)nc2c1CCCC2 [Compound 57] | 24 µM |
| NNC(=O)c1cnccc1Nc1nc(-c2cc(Cl)ccc2F)nc2c1CCC2 [Compound 58] | 10.3 µM |
| CCN(CC)CCNC(=O)c1cnccc1Nc1nc(-c2cc(Cl)ccc2F)nc2c1CCCC2 [Compound 59] | 2 µM |
| CC1(C)Cc2nc(-c3cc(Cl)ccc3F)nc(Nc3ccncc3C(N)=O)c2C1 [Compound 62, 4-[2-(5-Chloro-2-fluoro-phenyl)-6,6-dimethyl-6,7-dihydro-5H-cyclopentapyrimidin-4-ylamino]-nicotinamide] | 0.8 µM |
| CN(C)CCCNC(=O)c1cnccc1Nc1nc(-c2cc(Cl)ccc2F)nc2c1CCC2 [Compound 69] | 1.8 µM |
| Cc1cnccc1Nc1nc(-c2cc(Cl)ccc2F)nn2cccc12 [Compound 80] | 5.8 µM |
